The text below walks through data of paper PMC9105972 (International Journal of Molecular Sciences, 2022).

Each structure is given as a SMILES string. Where two headings read alike, the source gives them in different places.

Test [1] concerns AChE. Particulars: cited from earlier work.
Test [2] relates to AChE. The note with it: in vivo, rats, mice and rabbits; cited from earlier work.
Test [3] concerns the target human brain AChE (HuAChE). The note with it: cited from earlier work.
Test [4] addresses AChE from Torpedo californica (TcAChE). Particulars: cited from earlier work.
A further test has as its target T1, TcAChE (Tetronarce californica, UniProt P04058).
T1 construct: TcAChE was isolated and purified as previously described; from tissue
Kind of test: Pre-steady-state analysis by global fitting of full progress curves (ENZO). Format: biochemical, Torpedo californica.

T1 sequence (P04058 22-586): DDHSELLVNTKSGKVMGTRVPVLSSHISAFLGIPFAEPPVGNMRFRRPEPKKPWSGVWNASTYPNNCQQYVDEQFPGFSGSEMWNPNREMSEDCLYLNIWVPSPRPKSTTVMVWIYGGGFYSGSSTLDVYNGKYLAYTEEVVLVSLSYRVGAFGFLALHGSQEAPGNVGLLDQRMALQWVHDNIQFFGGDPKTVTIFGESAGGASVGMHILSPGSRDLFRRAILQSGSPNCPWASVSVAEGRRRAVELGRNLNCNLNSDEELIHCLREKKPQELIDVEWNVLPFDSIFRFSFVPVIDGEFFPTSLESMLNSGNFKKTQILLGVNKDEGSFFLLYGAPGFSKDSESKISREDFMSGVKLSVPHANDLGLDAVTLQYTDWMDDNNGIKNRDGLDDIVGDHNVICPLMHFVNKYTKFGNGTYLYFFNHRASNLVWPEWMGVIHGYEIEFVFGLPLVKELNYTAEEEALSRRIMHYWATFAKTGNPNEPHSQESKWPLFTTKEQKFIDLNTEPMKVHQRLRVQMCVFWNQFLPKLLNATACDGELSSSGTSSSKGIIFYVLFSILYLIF

In the case of `COc1ccc2c3c1O[C@H]1C[C@@H](O)C=C[C@@]31CCN(C)C2` [GAL, galantamine], the IC50 (commonly the concentration that inhibits the measured activity by half) in the test on AChE [1] (highest of 15 BRENDA entries) was […]; with AChE [1] (lowest of 15 BRENDA entries), […]. Moreover, the “times weaker AChE inhibitor than donepezil” value in the test on AChE [2] is reported as […]. Further, the Ki (commonly the dissociation constant of the complex between target and ligand, obtained from inhibition or displacement) in test [3] (human brain AChE, competitive inhibition, 1976) was 0.052 µM; in test [3] (recombinant form of HuAChE, 2003), 0.52 µM; in test [4] it was 0.2 µM.

For the compound `C[N+](C)(C)CCSSc1ccc([N+](=O)[O-])c(C(=O)[O-])c1` [thiocholine-TNB, thiocholine-thionitrobenzoic acid], the Ki at TcAChE (TcAChE 200 pM, ATCh 35 µM, initial thiocholine-TNB 0 to ~150 µM, competitive, read-out: Ki for product inhibition) was 21.5 ± 0.38 µM. Further, the inhibition mechanism entry against TcAChE (fit of full progress curves) is reported as “competitive inhibition mechanism”.
